Assay results reported in PubChem BioAssay (NCI).
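Cultured in 96-well plates, cells were exposed to test compound for 48 hours across five concentrations. Here, GI50 denotes the concentration required for 50% inhibition of growth. TGI: total growth inhibition.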

Assays:
Test in all cases: NCI anticancer screen, dose series, 48 h
786-0 renal = tested on: 786-0 renal
A498 renal = tested on: A498 renal
A549 NSCLC = tested on: A549 NSCLC
ACHN renal = tested on: ACHN renal
BT-549 breast = tested on: BT-549 breast
CAKI-1 renal = tested on: CAKI-1 renal
CCRF-CEM leukemia = tested on: CCRF-CEM leukemia
COLO 205 colon = tested on: COLO 205 colon
DU-145 prostate = tested on: DU-145 prostate
EKVX NSCLC = tested on: EKVX NSCLC
HCC-2998 colon = tested on: HCC-2998 colon
HCT-116 colon = tested on: HCT-116 colon
HCT-15 colon = tested on: HCT-15 colon
HL-60(TB) leukemia = tested on: HL-60(TB) leukemia
HOP-62 NSCLC = tested on: HOP-62 NSCLC
HOP-92 NSCLC = tested on: HOP-92 NSCLC
HS 578T breast = tested on: HS 578T breast
HT29 colon = tested on: HT29 colon
IGROV1 ovarian = tested on: IGROV1 ovarian
K-562 leukemia = tested on: K-562 leukemia
KM12 colon = tested on: KM12 colon
LOX IMVI melanoma = tested on: LOX IMVI melanoma
M14 melanoma = tested on: M14 melanoma
MALME-3M melanoma = tested on: MALME-3M melanoma
MCF7 breast = tested on: MCF7 breast
MDA-MB-231 breast = tested on: MDA-MB-231 breast
MDA-MB-435 = tested on: MDA-MB-435
MOLT-4 leukemia = tested on: MOLT-4 leukemia
NCI-H226 lung = tested on: NCI-H226 lung
NCI-H23 lung = tested on: NCI-H23 lung
NCI-H460 lung = tested on: NCI-H460 lung
NCI-H522 lung = tested on: NCI-H522 lung
NCI/ADR-RES ovarian = tested on: NCI/ADR-RES ovarian
OVCAR-3 ovarian = tested on: OVCAR-3 ovarian
OVCAR-4 ovarian = tested on: OVCAR-4 ovarian
OVCAR-5 ovarian = tested on: OVCAR-5 ovarian
OVCAR-8 ovarian = tested on: OVCAR-8 ovarian
PC-3 prostate = tested on: PC-3 prostate
RPMI-8226 leukemia = tested on: RPMI-8226 leukemia
RXF 393 renal = tested on: RXF 393 renal
SF-268 CNS = tested on: SF-268 CNS
SF-295 CNS = tested on: SF-295 CNS
SF-539 CNS = tested on: SF-539 CNS
SK-MEL-2 melanoma = tested on: SK-MEL-2 melanoma
SK-MEL-28 melanoma = tested on: SK-MEL-28 melanoma
SK-MEL-5 melanoma = tested on: SK-MEL-5 melanoma
SK-OV-3 ovarian = tested on: SK-OV-3 ovarian
SN12C renal = tested on: SN12C renal
SNB-19 CNS = tested on: SNB-19 CNS
SNB-75 CNS = tested on: SNB-75 CNS
SR leukemia = tested on: SR leukemia
SW-620 colon = tested on: SW-620 colon
T-47D breast = tested on: T-47D breast
TK-10 renal = tested on: TK-10 renal
U251 CNS = tested on: U251 CNS
UACC-257 melanoma = tested on: UACC-257 melanoma
UACC-62 melanoma = tested on: UACC-62 melanoma
UO-31 renal = tested on: UO-31 renal

Compound `COc1cc(-c2ccc(NC(=O)NC3CC3)c(OC)c2)ccc1NC(=O)NC1CC1` has a GI50 (786-0 renal) of 29.5 µM, a TGI (786-0 renal) of over 100 µM and a GI50 (A498 renal) of 19.2 µM. The TGI (A498 renal) was over 100 µM, the GI50 (A549 NSCLC) was 3.89 µM and the TGI (A549 NSCLC) was over 100 µM. For the same compound, the GI50 (ACHN renal) was 7.05 µM, the TGI (ACHN renal) was over 100 µM and the GI50 (BT-549 breast) was 2.67 µM. For the same compound, the TGI (BT-549 breast) was 27.2 µM, the GI50 (CAKI-1 renal) was 6.2 µM and the TGI (CAKI-1 renal) was over 60.7 µM. It also gave a GI50 (CCRF-CEM leukemia) of 4.34 µM, a TGI (CCRF-CEM leukemia) of over 100 µM and a GI50 (COLO 205 colon) of 7.67 µM. The TGI (COLO 205 colon) was over 100 µM, the GI50 (DU-145 prostate) was 6.89 µM and the TGI (DU-145 prostate) was over 100 µM. The GI50 (EKVX NSCLC) was over 100 µM, the TGI (EKVX NSCLC) was over 100 µM and the GI50 (HCC-2998 colon) was 28 µM. The TGI (HCC-2998 colon) was over 100 µM, the GI50 (HCT-116 colon) was 3.22 µM and the TGI (HCT-116 colon) was over 100 µM. The GI50 (HCT-15 colon) was 1.1 µM, the TGI (HCT-15 colon) was over 100 µM and the GI50 (HL-60(TB) leukemia) was 3.75 µM. It also gave a TGI (HL-60(TB) leukemia) of over 100 µM, a GI50 (HOP-62 NSCLC) of 28.8 µM and a TGI (HOP-62 NSCLC) of over 100 µM. It also gave a GI50 (HOP-92 NSCLC) of 7.66 µM, a TGI (HOP-92 NSCLC) of over 67.7 µM and a TGI (HS 578T breast) of over 28.6 µM. For the same compound, the GI50 (HT29 colon) was 5.81 µM, the TGI (HT29 colon) was over 100 µM and the GI50 (IGROV1 ovarian) was 5.83 µM. For the same compound, the TGI (IGROV1 ovarian) was 52.9 µM, the GI50 (K-562 leukemia) was 2.45 µM and the TGI (K-562 leukemia) was over 100 µM. The GI50 (KM12 colon) was 5.28 µM, the TGI (KM12 colon) was over 100 µM and the GI50 (LOX IMVI melanoma) was 3.15 µM. It also gave a TGI (LOX IMVI melanoma) of over 83.8 µM, a GI50 (M14 melanoma) of over 100 µM and a TGI (M14 melanoma) of over 100 µM. It also gave a GI50 (MALME-3M melanoma) of 4.99 µM, a TGI (MALME-3M melanoma) of over 100 µM and a GI50 (MCF7 breast) of 5.69 µM. For the same compound, the TGI (MCF7 breast) was over 100 µM, the GI50 (MDA-MB-231 breast) was 11.6 µM and the TGI (MDA-MB-231 breast) was over 100 µM. For the same compound, the GI50 (MDA-MB-435) was 9.18 µM, the TGI (MDA-MB-435) was over 100 µM and the GI50 (MOLT-4 leukemia) was 3.33 µM. It also gave a TGI (MOLT-4 leukemia) of over 100 µM, a GI50 (NCI-H226 lung) of 7.25 µM and a TGI (NCI-H226 lung) of over 100 µM. For the same compound, the GI50 (NCI-H23 lung) was over 68.5 µM, the TGI (NCI-H23 lung) was over 100 µM and the GI50 (NCI-H460 lung) was 1.51 µM. It also gave a TGI (NCI-H460 lung) of 15.7 µM, a GI50 (NCI-H522 lung) of 4.94 µM and a TGI (NCI-H522 lung) of over 62.5 µM. The GI50 (NCI/ADR-RES ovarian) was over 43.6 µM, the TGI (NCI/ADR-RES ovarian) was over 100 µM and the GI50 (OVCAR-3 ovarian) was 25.7 µM. For the same compound, the TGI (OVCAR-3 ovarian) was over 100 µM, the GI50 (OVCAR-4 ovarian) was over 100 µM and the TGI (OVCAR-4 ovarian) was over 100 µM. The GI50 (OVCAR-5 ovarian) was over 100 µM, the TGI (OVCAR-5 ovarian) was over 100 µM and the GI50 (OVCAR-8 ovarian) was 6.83 µM. The TGI (OVCAR-8 ovarian) was over 100 µM, the GI50 (PC-3 prostate) was 9.01 µM and the TGI (PC-3 prostate) was over 100 µM. It also gave a GI50 (RPMI-8226 leukemia) of 2.47 µM, a TGI (RPMI-8226 leukemia) of over 24.7 µM and a GI50 (RXF 393 renal) of 1.16 µM. It also gave a TGI (RXF 393 renal) of 4.42 µM, a GI50 (SF-268 CNS) of 8.21 µM and a TGI (SF-268 CNS) of over 100 µM. For the same compound, the GI50 (SF-295 CNS) was 4.36 µM, the TGI (SF-295 CNS) was over 100 µM and the GI50 (SF-539 CNS) was 4.86 µM. For the same compound, the TGI (SF-539 CNS) was 99.8 µM, the GI50 (SK-MEL-2 melanoma) was 35.5 µM and the TGI (SK-MEL-2 melanoma) was over 100 µM. It also gave a GI50 (SK-MEL-28 melanoma) of over 29.3 µM, a TGI (SK-MEL-28 melanoma) of over 100 µM and a GI50 (SK-MEL-5 melanoma) of 4.84 µM. The TGI (SK-MEL-5 melanoma) was over 100 µM, the GI50 (SK-OV-3 ovarian) was 23.8 µM and the TGI (SK-OV-3 ovarian) was over 100 µM. For the same compound, the GI50 (SN12C renal) was 18.8 µM, the TGI (SN12C renal) was over 100 µM and the GI50 (SNB-19 CNS) was 8.87 µM. The TGI (SNB-19 CNS) was over 100 µM, the GI50 (SNB-75 CNS) was 12.1 µM and the TGI (SNB-75 CNS) was over 85.8 µM. For the same compound, the GI50 (SR leukemia) was 0.446 µM, the GI50 (SW-620 colon) was 5.39 µM and the TGI (SW-620 colon) was over 100 µM. For the same compound, the GI50 (T-47D breast) was over 100 µM, the TGI (T-47D breast) was over 100 µM and the GI50 (TK-10 renal) was 13.9 µM. It also gave a TGI (TK-10 renal) of over 100 µM, a GI50 (U251 CNS) of 3.11 µM and a TGI (U251 CNS) of over 69.3 µM. For the same compound, the GI50 (UACC-257 melanoma) was 12.4 µM, the TGI (UACC-257 melanoma) was over 100 µM and the GI50 (UACC-62 melanoma) was 5.71 µM. For the same compound, the TGI (UACC-62 melanoma) was over 100 µM, the GI50 (UO-31 renal) was 5.27 µM and the TGI (UO-31 renal) was over 100 µM.
